Assay type in all cases: in vitro ADME
One data set concerns the target T1, CYP2C19 (Homo sapiens, UniProt P33261).
T1 construct: purchased Cypex Ltd. (Dundee, UK)
The data set is described as follows: Incubation with human cDNA-expressed CYP2C19. The following applies: CYP2C19, 30 min at 37 °C with NADPH; ETN101 10 μM or M1 1 μM. The procedure: (§1) ETN101 or M1 was incubated with nine human cDNA-expressed CYP enzymes (1A2, 2A6, 2B6, 2C8, 2C9, 2C19, 2D6, 2E1, and 3A4) to identify the CYPs involved in the metabolism of ETN101. Based on the preliminary study, the incubation conditions were determined as follows: Briefly, reaction mixtures of 50 μL containing ETN101 (final concentration: 10 μM) or M1 (final concentration: 1 μM), and CYPs (final amount: 5 pmol for CYP1A2, 2A6, 2C8, 2C9, 2C19, 2D6, and 3A4; 10 pmol for CYP2B6 and 2E1) were prepared in 0.1 M potassium phosphate buffer. The reaction was initiated by adding 50 μL of NADPH- regenerating system; the mixtures were incubated for 0 min or 30 min at 37 °C in triplicate. Reactions were terminated by the addition of 100 μL of ice-cold acetonitrile containing the IS (camptothecin, 200 ng/mL). Samples were centrifuged at 13,000 rpm for 5 min at 4 °C. An aliquot of 2 μL supernatant was injected in LC–MS/MS system.
(§2) For enzyme characterization, an Agilent 6460 triple quadrupole mass spectrometer coupled with a 1260 HPLC system (Agilent Technologies, Santa Clara, CA, USA) and a Kinetex Halo® C18 column (2.7 μm, 2.1 × 50 mm, Advanced Material Technology, Wilmington, DE, USA) were used for chromatographic separation. […] ETN101, M1, and M2 were detected via MRM using ESI in the positive mode. […]

The subject of another data set is mouse hepatocytes. Nature of the data set: Metabolite characterization in mouse hepatocytes. The following applies: mouse hepatocyte 1 h incubates of ETN101; ND:<1.2E+05 peak area. The procedure: We mixed 60 μL aliquots of 40 μM ETN101 in incubation medium and an equal volume of human, mouse, rat, dog, or monkey hepatocyte suspension in 96-well plates and incubated for 0 or 1 h in a CO2 incubator at 37 °C. The reactions were quenched by adding 120 µL of ice-cold acetonitrile to each well, and the cell suspension was sonicated for 5 min at 4 °C. Subsequently, centrifugation was carried out at 15,000× g for 10 min at 4 °C. Next, the supernatants were evaporated to dryness using a vacuum concentrator, and residues were re-dissolved in 70 μL of 30% acetonitrile. Each sample (5 μL aliquots) was analyzed using LC–HRMS system.
For metabolite characterization, a Vanquish HPLC system (Thermo Fisher Scientific, San José, CA, USA) coupled with a Q-Exactive Orbitrap mass spectrometer (Thermo Fisher Scientific Inc., Waltham, MA, USA) was used at Core Research Support Center for Natural Products and Medical Materials at Yeungnam University. […] The eluent from the column was directly injected into the mass spectrometer using a heated electrospray ionization (HESI) source in positive ionization mode. […] The spray voltage was 3.0 kV and the capillary temperature was 320 °C. Full scan MS^1 with a data-dependent MS^2 acquisition mode was applied to obtain MS^1 scan data ranging from m/z 80 to 900, at a resolution of 70,000, whereas data-dependent MS^2 spectra were acquired for the five most abundant peaks per cycle at a resolution of 35,000. The parallel reaction monitoring (PRM) mode was used to obtain the MS^2 spectra of putative metabolites detected at low peak intensities in the data-dependent MS^2 acquisition mode. Data were collected and interpreted using Thermo Scientific Xcalibur™ Software (Thermo Fisher Scientific).

The next data set has as its target T2, CYP2D6 (Homo sapiens, UniProt P10635).
T2 construct: purchased Corning Life Sciences (Woburn, MA, USA)
Nature of the data set: Incubation with human cDNA-expressed CYP2D6. The following applies: CYP2D6, 30 min at 37 °C with NADPH; ETN101 10 μM or M1 1 μM. The procedure:
as §1, §2

For the next data set, the target named is T3, CYP2A6 (Homo sapiens, UniProt P11509).
T3 construct: purchased Corning Life Sciences (Woburn, MA, USA)
T3 sequence (P11509 1-494): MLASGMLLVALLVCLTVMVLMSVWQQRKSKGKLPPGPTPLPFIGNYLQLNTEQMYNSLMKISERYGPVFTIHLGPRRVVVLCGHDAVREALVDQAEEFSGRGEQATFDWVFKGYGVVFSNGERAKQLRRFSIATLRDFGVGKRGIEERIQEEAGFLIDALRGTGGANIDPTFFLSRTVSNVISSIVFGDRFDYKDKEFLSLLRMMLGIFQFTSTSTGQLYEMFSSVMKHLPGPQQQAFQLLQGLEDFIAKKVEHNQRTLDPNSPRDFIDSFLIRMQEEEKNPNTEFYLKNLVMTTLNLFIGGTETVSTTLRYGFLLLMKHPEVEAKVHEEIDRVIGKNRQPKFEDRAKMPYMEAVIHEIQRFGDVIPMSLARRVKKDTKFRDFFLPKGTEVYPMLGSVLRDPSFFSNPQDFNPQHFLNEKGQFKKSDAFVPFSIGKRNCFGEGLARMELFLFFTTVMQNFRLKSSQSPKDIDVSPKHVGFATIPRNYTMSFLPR
The data set is described as follows: Incubation with human cDNA-expressed CYP2A6. The following applies: CYP2A6, 30 min at 37 °C with NADPH; ETN101 10 μM or M1 1 μM. How it is done: as §1, §2

T2 sequence (P10635 whole entry): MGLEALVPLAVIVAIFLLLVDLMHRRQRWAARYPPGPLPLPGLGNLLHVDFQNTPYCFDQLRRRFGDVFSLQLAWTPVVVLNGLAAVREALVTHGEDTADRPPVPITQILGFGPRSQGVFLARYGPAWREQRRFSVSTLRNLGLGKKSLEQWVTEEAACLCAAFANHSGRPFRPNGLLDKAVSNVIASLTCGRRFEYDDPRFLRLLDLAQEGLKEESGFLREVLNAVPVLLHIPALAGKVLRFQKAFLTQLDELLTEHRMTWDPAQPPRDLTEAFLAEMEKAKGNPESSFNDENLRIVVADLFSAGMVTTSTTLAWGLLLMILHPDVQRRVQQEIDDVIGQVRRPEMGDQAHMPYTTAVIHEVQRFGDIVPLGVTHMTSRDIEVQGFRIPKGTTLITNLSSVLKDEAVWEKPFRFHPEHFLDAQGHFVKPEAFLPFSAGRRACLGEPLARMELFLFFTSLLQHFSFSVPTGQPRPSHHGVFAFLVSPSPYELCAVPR
T1 sequence (P33261 whole entry): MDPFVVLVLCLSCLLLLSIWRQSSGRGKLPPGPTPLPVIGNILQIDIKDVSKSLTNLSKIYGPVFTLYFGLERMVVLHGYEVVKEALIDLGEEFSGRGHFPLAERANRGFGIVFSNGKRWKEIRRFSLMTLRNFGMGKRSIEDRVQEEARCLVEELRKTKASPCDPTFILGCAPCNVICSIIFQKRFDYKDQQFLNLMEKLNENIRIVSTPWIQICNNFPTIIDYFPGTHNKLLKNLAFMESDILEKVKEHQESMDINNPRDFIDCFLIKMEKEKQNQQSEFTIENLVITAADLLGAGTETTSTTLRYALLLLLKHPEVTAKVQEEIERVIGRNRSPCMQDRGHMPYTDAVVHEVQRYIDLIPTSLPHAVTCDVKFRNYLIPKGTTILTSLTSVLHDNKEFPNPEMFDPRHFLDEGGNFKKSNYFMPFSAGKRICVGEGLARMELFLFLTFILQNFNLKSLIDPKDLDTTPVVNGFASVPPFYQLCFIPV

Regarding `Nc1ccc(-c2nc3ccccc3s2)cc1` [M1, 2-(4-aminophenyl)benzothiazole], the Percentage remaining on CYP2C19 amounted to 68.7%; on CYP2D6, 83.0%; on CYP2A6 it was 105.9%. In addition, the “Relative peak area (%)” value in the data set with mouse hepatocytes was 71.8%.
The corresponding values for `NCC(N)C(=O)Nc1ccc(-c2nc3ccccc3s2)cc1` (centres unmarked) [ETN101, 2,3-diamino-N-(4-(benzo[d]thiazol-2-yl)phenyl)propanamide] are 113.0%, 86.9%, 115.6% and 26.8%.

These data come from publication PMC11356571, “The Comparative Metabolism of a Novel Hepatocellular Carcinoma Therapeutic Agent, 2,3-Diamino-N-(4-(benzo[d]thiazol-2-yl)phenyl)propanamide, in Human and Animal Hepatocytes” (Metabolites, 2024).
